Here are results for 16 compounds from US12286401B2, “Small molecules that sensitize HIV-1 infected cells to antibody dependent cellular cytotoxicity” (THE TRUSTEES OF THE UNIVERSITY OF PENNSYLVANIA, priority 2018, dated 2025).

Series [1] concerns CH58TF infected primary CD4+ T-cells. In words: HIV+ patient sera/plasma recognition of CH58TF infected primary CD4+ T-cells (flow cytometry cell-surface staining). Type of series: cell-based, HIV-1. As to conditions: for fold induction at 50 µM: Human immunodeficiency virus 1, T-cell, read-out: Fold Over DMSO (patient sera, n = 3). As to the method: (§1) Cell-surface staining of primary CD4+ T cells from healthy HIV uninfected individuals or CEM-NKr cells is performed, as described in Prevost, “Influence of the Envelope gp120 Phe 43 Cavity on HIV-1 Sensitivity to Antibody-Dependent Cell-Mediated Cytotoxicity Responses,” 2017, J. Virol 91; Richard, “CD4 mimetics sensitize HIV-1-infected cells to ADCC,” 2015, Proc. Natl. Acad. Sci. USA, 112:E2687-2694; Richard, “Small CD4 Mimetics Prevent HIV-1 Uninfected Bystander CD4+ T Cell Killing Mediated by Antibody-dependent Cell-mediated Cytotoxicity,” 2016, EBioMedicine 3:122-134; Veillette, “The HIV-1 gp120 CD4-Bound Conformation Is Preferentially Targeted by Antibody-Dependent Cellular Cytotoxicity-Mediating Antibodies in Sera from HIV-1-Infected Individuals,” 2015, J. Virol., 89:545-551; Veillette, “Interaction with cellular CD4 exposes HIV-1 envelope epitopes targeted by antibody-dependent cell-mediated cytotoxicity,” 2014, J. Virol., 88:2633-2644; Richard, “Uninfected Bystander Cells Impact the Measurement of HIV-Specific Antibody-Dependent Cellular Cytotoxicity Responses,” 2018, MBio. 9(2): e00358-18; Richard, “BST-2 Expression Modulates Small CD4-Mimetic Sensitization of HIV-1-Infected Cells to Antibody-Dependent Cellular Cytotoxicity,” 2017, J. Virol. 91(11):e00219-17. Binding of HIV-1 infected cells by HIV+ sera (1:1000 dilution) or anti-Env Abs (such as 17b) is performed […] in vitro infection at 37° C. in presence of different concentrations of the MCG analogs or with equivalent volume of vehicle (DMSO). Cells infected with HIV-1 primary isolates are stained intracellularly for HIV-1 p24 using the Cytofix/Cytoperm Fixation/Permeabilization Kit (BD Biosciences, Mississauga, ON, Canada) and then fluorescent anti-p24 mAb (PE-anti-p24, clone KC57; Beckman Coulter/Immunotech, Hialeah, FL) (1:100 final concentration). The percentage of infected cells (p24^+ or GFP+ cells) is determined by gating the living cell population based on the viability dye staining. Samples are analyzed on an LSRII cytometer (BD Biosciences, Mississauga, ON, Canada) and data analysis is performed using FlowJo vX0.7 (Tree Star, Ashland, OR, USA).
HIV+ Patient Sera (n=3) Recognition of CH58TF Infected Primary CD4+ T-Cells
Staining with patient sera and 50 μM of compounds given as a fold change over DMSO (vehicle).
(§2) Briefly, Primary CD4 T cells isolated from PBMC were infected with HIV-1CH58TF for 48 hours. For cell surface staining, 5 μg/ml 17b (FIG. 15A) or 1:1000 diluted HIV+ plasma (n=15) (FIG. 15B) were used in the presence of the different MCG analogs (50 μM), (+)-BNM-III-170 or with an equivalent volume of vehicle (DMSO). An Alexa Fluor 647-conjugated anti-human IgG secondary Ab was then used for fluorescent labeling. For ADCC (FIG. 15C), infected cells were used as target cells in a FACS-based ADCC assay that measures the killing of infected (p24+ cells). See, Madani, 2016, J. Virol., 90:5031-5046. The assay determines susceptibility to ADCC mediated by a 1/1,000 dilution of plasma from 15 HIV-1-infected individuals in the presence of the different MCG analogs (50 μM), (+)-BNM-III-170 (50 μM) or with an equivalent volume of vehicle (DMSO). Correlation between cell-surface staining with HIV+ plasma and ADCC was calculated using the Spearman rank correlation (FIG. 15D).

Series [2] concerns HIV-1JR-FL EnvΔCT expressed at the surface of HOS cells. In words: Cell-based ELISA (CBE), 17b readout. As to conditions: MCG analogs 50 μM; BNM-III-170 5 μM; 2G12 and DMSO normalized. As to the method:
Detection of trimeric HIV-1 Env at the surface of HOS cells was performed by cell-based ELISA, as described in Desormeaux, “The highly conserved layer-3 component of the HIV-1 gp120 inner domain is critical for CD4-required conformational transitions,” J. Virol. 87:2549-2562; Alsahafi, “Effects of the I559P gp41 change on the conformation and function of the human immunodeficiency virus (HIV-1) membrane envelope glycoprotein trimer,” 2015, PLoS One 10:e0122111; and Veillette, “Conformational evaluation of HIV-1 trimeric envelope glycoproteins using a cell-based ELISA assay,” 2014, J. Vis. Exp., 91:51995. To enhance cell-surface expression of HIV-1 EnvRF a stop codon was introduced to replace the codon for Gly 711, truncating the cytoplasmic tail (ACT). Briefly, HOS cells were seeded in T-75 flasks (3×10^6 cells per flask) and transfected the next day with 22.5 μg of Env-expressing plasmids (wild-type and mutants S375W, S375T, H66A, A582T/L587A, etc) using the standard polyethylenimine (PEI, Polyscience Inc, PA, USA) transfection method. Twenty-four hours after transfection, cells were plated in 384-wells plates (2×10^4 cells per well). One day later, cells were washed twice with blocking buffer (10 mg/mL non-fat dry milk, 1.8 mM CaCl2), 1 mM MgCl2, 25 mM Tris, pH 7.5 and 140 mM NaCl) and then incubated for 30 minutes at room temperature with different concentrations of MCG analogs or equivalent volume of vehicle (DMSO). Cells were then incubated for an additional 1 h at room temperature with anti-HIV-1 Env monoclonal antibodies recognizing CD4-induced gp120 epitopes (17b, A32), CD4-binding site gp120 epitopes (VRC03, VRC01, F105, and b12), gp120 V3 glycans (19b, PGT126, PGT122, and 10.1074), gp120 outer domain (2G12), and gp120-gp41 interface (PGT151 and VRC34) epitopes. All ligands were diluted in blocking buffer. A horseradish peroxidase-conjugated antibody specific for the Fc region of human or mouse IgG (Pierce) was then incubated with the samples for 45 minutes at room temperature. For all conditions, cells were washed 5 times with blocking buffer and 5 times with washing buffer (1.8 mM CaCl2), 1 mM MgCl2, 25 mM Tris, pH 7.5 and 140 mM NaCl). HRP enzyme activity was determined after the addition of 20 μl per well of a 1:1 mix of Western Lightning oxidizing and luminol reagents (Perkin Elmer Life Sciences). Light emission was measured with an LB 941 TriStar luminometer (Berthold Technologies) and analysis with Graph Pad software.
The data of Table 2 is given as the fold over BNM-III-170 (5 μM) of Cell-Based ELISA with MCG Analogs (50 μM)—17b readout, 2G12 and DMSO normalized.
To identify molecules able to expose vulnerable Env epitopes, a cell-based ELISA (CBE) assay was adapted, capable of measuring conformational changes of membrane-bound trimeric Env as described in Veillette, 2014, J. Vis. Exp. doi:10.3791/51995:51995; Haim, 2011, PLoS Pathog 7:e1002101, into a high-throughput screening (HTS) platform (FIG. 10A). Briefly, the cytoplasmic-tail deleted HIV-1JR-FL Tier-2/3 Env was expressed on the surface of HOS cells in a 384-well-plate format. The cytoplasmic tail of Env was deleted to enhance Env expression at the cell surface and therefore enhance the sensitivity of the CBE assay. See, Veilette and Haim, 2009, PLoS Pathog 5:e100036. Small molecules or, as a positive control, soluble (sCD4) were added to expose the HIV-1JR-FL EnvΔCT epitope that can be recognized by the CD4i antibody 17b. See, Wyatt, 1995, J. Virol. 69:5723-5733; Rizzuto, 1998, Science 280:1949-1953.
17b binding was detected by a horseradish peroxidase-conjugated (HRP) second antibody, and HRP enzyme activity was measured by Western Lightning oxidizing and luminal reagents. 17b binding in the presence of sCD4 was set as the control (FIG. 10B, blue dots), small molecules that enhanced 17b binding above 25% of the one induced by sCD4 were retested in quadruplicate and only one molecule (UM0059920) was deemed a true positive (FIG. 10B, red dots). […]

A short description of another series: Solubility in PBS. Type of series: physicochemical. The following applies: Yes/NO.
The test system of series [3] is CH58TF infected primary CD4+ T-cells. In words: Recognition of HIV-1 infected cells by 17b (flow cytometry cell-surface staining). Type of series: cell-based. The following applies: for fold induction at 50 µM: Human immunodeficiency virus 1, T-cell, read-out: Fold Over DMSO (17b, n = 1). The method, then: as §1, §2

`O=C(Nc1ccc(Cl)c(F)c1)[C@H]1CCCN(S(=O)(=O)C(F)(F)F)C1` [(S)-MCG-III-132]: the fold induction at 50 µM in series [1] came to 1.58. The “Fold over BNM-III-170 - 17b binding (±0.05)” value (“Fold … (±0.05)” below) in series [2] amounted to 0.27 fold. Also, the “Solubility (in PBS)” value in “Solubility in PBS” was “Yes”.
`O=C(Oc1ccc(Cl)c(F)c1)[C@H]1CCCN(S(=O)(=O)c2ccccc2)C1` [(S)-MCG-III-213-A03]: the fold induction at 50 µM in series [1] was 1.08; in series [3] it was 0.928. Besides, the “Fold … (±0.05)” value in series [2] was found to be 0.05 fold.
On to `CS(=O)(=O)N1CCC(C(=O)Nc2ccc(Cl)c(F)c2)C1` (stereo not drawn) [MCG-III-157-A01], for which, in series [1], the fold induction at 50 µM stood at 1.85. The “Fold … (±0.05)” value in series [2] is 0.36 fold. Further, the “Solubility (in PBS)” value in the series “Solubility in PBS” is “Yes”.
Turning to `CCS(=O)(=O)N1CCC(C(=O)Nc2ccc(Cl)c(F)c2)C1` (stereo not drawn) [MCG-III-157-A02], the fold induction at 50 µM in series [1] is 1.64. In addition, the “Fold … (±0.05)” value in series [2] amounted to 0.27 fold. The “Solubility (in PBS)” value in the series “Solubility in PBS” was “Yes”.
The matching figures for `Cn1cnc(S(=O)(=O)N2CCC(C(=O)Nc3ccc(Cl)c(F)c3)C2)c1` (stereo not drawn) [MCG-III-157-A04]: 1.28, 0.34 fold and “Yes”.
The like results for `CS(=O)(=O)N1CCCC(C(=O)Nc2ccc(Cl)c(F)c2)C1` (stereo not drawn) [MCG-III-157-B01] were, in that order, 1.48, 0.42 fold and “Yes”.
The like results for `CCS(=O)(=O)N1CCCC(NC(=O)c2ccc(Cl)c(F)c2)C1` (stereo not drawn) [MCG-III-157-C02] were, in that order, 1.05, 0.07 fold and “Yes”.
As for `Cn1cnc(S(=O)(=O)N2CCCC(NC(=O)c3ccc(Cl)c(F)c3)C2)c1` (stereo not drawn) [MCG-III-157-C04], in series [1], the fold induction at 50 µM was found to be 0.897. Besides, the “Fold … (±0.05)” value in series [2] amounted to 0.04 fold. Further, the “Solubility (in PBS)” value in “Solubility in PBS” is “Yes”.
On to `O=C(Nc1ccc(Cl)c(F)c1)C1CNCCO1` (stereo not drawn) [MCG-III-196], for which the “Fold Over DMSO (patient sera, n = 3)” value in series [1] (50 μM of compounds, staining with HIV+ patient sera, CH58TF infected primary CD4+ T-cells) is listed as 1.499 fold. Further, the “Fold Over DMSO (17b, n = 1)” value in series [3] (50 μM of compounds, 17b staining) came to 2.595 fold. For the same compound, the “Solubility (in PBS)” value in “Solubility in PBS” is given as “Yes”.
For `CCN1CC(C(=O)Nc2ccc(Cl)c(F)c2)Cc2ccccc21` (stereo not drawn) [MCG-III-201], the fold induction at 50 µM in series [1] stood at 0.989; in series [3], 1.39. For the same compound, the “Solubility (in PBS)” value in the series “Solubility in PBS” was “Yes”.
Regarding `O=C(Nc1ccc(Cl)c(F)c1)C1CNc2ccccc2C1` (stereo not drawn) [MCG-III-209], the fold induction at 50 µM in series [1] is 1.82; in series [3], 3.23. The “Solubility (in PBS)” value in “Solubility in PBS” is “Yes”.
On to `O=C(Nc1ccc(Cl)c(F)c1)C1CN(S(=O)(=O)c2ccccc2)CCO1` (stereo not drawn) [MCG-III-211-A03], for which the values for the fold induction at 50 µM in series [1] and in series [3] were 1.7 and 2.64, respectively. Moreover, the “Fold … (±0.05)” value in series [2] is recorded as 0.28 fold.
Take `CC(C)(C)OC(=O)N1CCN(S(=O)(=O)c2ccccc2)CC1C(=O)Nc1ccc(Cl)c(F)c1` (stereo not drawn) [MCG-III-212-A03]: the values for the fold induction at 50 µM in series [1] and in series [3] were 1.24 and 1.1, respectively. The “Fold … (±0.05)” value in series [2] stood at 0.06 fold.
As for `CCS(=O)(=O)N1CC(C(=O)Nc2ccc(Cl)c(F)c2)Cc2ccccc21` (stereo not drawn) [MCG-III-214-A02], the values for the fold induction at 50 µM in series [1] and in series [3] were 3.25 and 5.16, respectively. The “Solubility (in PBS)” value in the series “Solubility in PBS” is reported as “Yes**”.
Consider `O=C(Nc1ccc(Cl)c(F)c1)C1Cc2ccccc2N(S(=O)(=O)c2ccccc2)C1` (stereo not drawn) [MCG-III-214-A03], for which the fold induction at 50 µM is 1.05 in series [1] and 0.911 in series [3]. In series [2], the “Fold … (±0.05)” value came to 0.09 fold.
The like results for `Cn1cnc(S(=O)(=O)N2CC(C(=O)Nc3ccc(Cl)c(F)c3)Cc3ccccc32)c1` (stereo not drawn) [MCG-III-214-A04] were, in that order, 0.924, 1.15 and 0.18 fold.
